Source: patent publication US8217063B2, “Lactam-substituted dicarboxylic acids and use thereof” (Bayer Intellectual Property GmbH, priority 2007, dated 2012)

Key:
[1] = system: saphenous artery; experiment: Vasorelaxant effect in vitro (phenylephrine-contracted artery rings); design: species or system Rabbits; settings: Oryctolagus cuniculus; rabbit saphenous artery rings, contraction induced by phenylephrine
Procedure: B-1. Vasorelaxant Effect In Vitro:
Rabbits are anesthetized and sacrificed by intravenous injection of thiopental sodium (about 50 mg/kg) and exsanguinated. The saphenous artery is removed and divided into rings 3 mm wide. The rings are mounted singly on in each case a pair of triangular hooks open at the end and made of 0.3 mm-thick special wire (Remanium®). Each ring is placed under an initial tension in 5 ml organ baths with Krebs-Henseleit solution which is at 37° C., is gassed with carbogen and has the following composition: NaCl 119 mM; KCl 4.8 mM; CaCl2×2H2O 1 mM; MgSO4×7H2O 1.4 mM; KH2PO4 1.2 mM; NaHCO3 25 mM; glucose 10 mM; bovine serum albumin 0.001%. The force of contraction is detected with Statham UC2 cells, amplified and digitized via A/D converters (DAS-1802 HC, Keithley Instruments, Munich) and recorded in parallel on chart recorders. Contractions are induced by addition of phenylephrine.
After several (generally 4) control cycles, the substance to be investigated is added in each further run in increasing dosage, and the height of the contraction achieved under the influence of the test substance is compared with the height of the contraction reached in the last preceding run. The concentration necessary to reduce the contraction reached in the preceding control by 50% is calculated from this (IC50). The standard application volume is 5 μl. The proportion of DMSO in the bath solution corresponds to 0.1%.

[2] = target: T1, Heme-containing sGC (Rattus norvegicus, UniProt P20595); experiment: Stimulation of recombinant soluble guanylate cyclase (sGC) in vitro, heme-containing enzyme; assay type: biochemical
T1 construct: made in house; host or cells: baculovirus/Sf9
T1 sequence (P20595 1-619): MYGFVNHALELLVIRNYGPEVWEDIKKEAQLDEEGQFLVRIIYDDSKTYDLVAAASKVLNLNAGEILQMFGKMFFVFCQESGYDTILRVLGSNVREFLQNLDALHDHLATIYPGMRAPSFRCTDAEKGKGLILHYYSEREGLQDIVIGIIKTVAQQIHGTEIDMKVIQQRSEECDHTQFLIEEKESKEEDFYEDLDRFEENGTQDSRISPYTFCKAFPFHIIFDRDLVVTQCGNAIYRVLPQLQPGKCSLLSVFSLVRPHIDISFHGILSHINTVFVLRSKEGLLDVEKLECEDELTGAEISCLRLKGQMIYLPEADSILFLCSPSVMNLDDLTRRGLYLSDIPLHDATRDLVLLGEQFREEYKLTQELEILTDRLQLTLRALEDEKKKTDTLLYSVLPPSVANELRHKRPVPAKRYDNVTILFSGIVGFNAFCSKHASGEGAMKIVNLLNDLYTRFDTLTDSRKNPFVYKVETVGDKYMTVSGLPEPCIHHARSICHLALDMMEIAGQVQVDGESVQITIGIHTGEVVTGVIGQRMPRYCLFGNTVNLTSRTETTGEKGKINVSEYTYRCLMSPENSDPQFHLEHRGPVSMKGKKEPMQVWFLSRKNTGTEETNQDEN
T1 sequence (P19686 1-690 partner): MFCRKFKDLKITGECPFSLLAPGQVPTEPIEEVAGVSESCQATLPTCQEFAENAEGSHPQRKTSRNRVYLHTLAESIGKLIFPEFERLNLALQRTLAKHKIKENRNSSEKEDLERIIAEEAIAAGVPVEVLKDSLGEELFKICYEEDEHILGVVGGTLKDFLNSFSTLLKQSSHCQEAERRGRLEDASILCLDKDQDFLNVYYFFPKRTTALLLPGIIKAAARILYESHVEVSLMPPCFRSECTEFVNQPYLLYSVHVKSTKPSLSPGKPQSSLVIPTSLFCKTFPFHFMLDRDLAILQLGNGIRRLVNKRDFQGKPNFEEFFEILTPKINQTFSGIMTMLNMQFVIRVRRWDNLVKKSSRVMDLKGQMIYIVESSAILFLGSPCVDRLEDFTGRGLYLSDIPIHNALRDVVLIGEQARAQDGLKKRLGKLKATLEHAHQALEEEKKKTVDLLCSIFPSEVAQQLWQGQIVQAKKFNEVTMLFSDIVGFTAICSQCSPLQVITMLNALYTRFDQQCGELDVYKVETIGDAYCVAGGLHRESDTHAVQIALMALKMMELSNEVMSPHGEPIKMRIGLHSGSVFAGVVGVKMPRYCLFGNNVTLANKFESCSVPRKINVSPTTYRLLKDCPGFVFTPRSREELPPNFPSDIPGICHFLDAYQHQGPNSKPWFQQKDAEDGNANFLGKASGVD
Source text: (§1) B-2. Stimulation of Recombinant Soluble Guanylate Cyclase (sGC) In Vitro:
Hoenicka, E. M. Becker, H. Apeler, T. Sirichoke, H. Schroeder, R. Gerzer and J.-P. Stasch, “Purified soluble guanylyl cyclase expressed in a baculovirus/Sf9 system: Stimulation by YC-1, nitric oxide, and carbon oxide”, J. Mol. Med. 77 (1999), 14-23. The heme-free guanylate cyclase is obtained by adding Tween 20 to the sample buffer (0.5% in the final concentration).
(§2) The activation of sGC by a test substance is reported as n-fold stimulation of the basal activity.

[3] = target: T2, recombinant guanylate cyclase reporter cell line (Rattus norvegicus, UniProt P20595); experiment: sGC-activating activity in the CHO reporter cell in vitro; assay type: cell-based
T2 construct: expressed in transfected cells; host or cells: CHO
T2 sequence (P20595 1-619): T1 sequence (P20595 1-619)
T2 sequence (P19686 1-690 partner): T1 sequence (P19686 1-690 partner)
Procedure: B-3. Action at Recombinant Guanylate Cyclase Reporter Cell Lines
The cellular action of the compounds according to the invention is determined using a recombinant guanylate cyclase reporter cell line, as described in F. Wunder et al., Anal. Biochem. 339, 104-112 (2005).

[4] = target: T3, Heme-free sGC (Rattus norvegicus, UniProt P20595); experiment: Stimulation of recombinant soluble guanylate cyclase (sGC) in vitro, heme-free enzyme; assay type: biochemical; settings: heme-free sGC (0.5% Tween 20)
T3 construct: made in house; host or cells: baculovirus/Sf9
T3 sequence (P20595 1-619): T1 sequence (P20595 1-619)
T3 sequence (P19686 1-690 partner): T1 sequence (P19686 1-690 partner)
Procedure: as §1
Investigations on the stimulation of recombinant soluble guanylate cyclase (sGC) by the compounds according to the invention with and without sodium nitroprusside, and with and without the heme-dependent sGC inhibitor 1H-1,2,4-oxadiazole-(4,3a)-quinoxalin-1-one (ODQ) are carried out by the method described in detail in the following reference: M. Hoenicka, E. M. Becker, H. Apeler, T. Sirichoke, H. Schroeder, R. Gerzer and J.-P. Stasch, “Purified soluble guanylyl cyclase expressed in a baculovirus/Sf9 system: Stimulation by YC-1, nitric oxide, and […]”, J. Mol. Med. 77 (1999), 14-23. The heme-free guanylate cyclase is obtained by adding Tween 20 to the sample buffer (0.5% in the final concentration).
as §2

- IC50 [1]: 52 nM
- Stimulation (n-fold) of sGC, +0.1 μM DEA/NO ([2]; 0.01 μM Example 3): 23.3 n-fold
- Stimulation (n-fold) of sGC, +0.1 μM DEA/NO ([2]; 0.1 μM Example 3): 34.7 n-fold
- Stimulation (n-fold) of sGC, +0.1 μM DEA/NO ([2]; 1 μM Example 3): 41.6 n-fold
- Stimulation (n-fold) of sGC, +0.1 μM DEA/NO ([2]; 10 μM Example 3): 40.0 n-fold
- Stimulation (n-fold) of sGC, +10 μM ODQ ([2]; 0.01 μM Example 3): 35.1 n-fold
- Stimulation (n-fold) of sGC, +10 μM ODQ ([2]; 0.1 μM Example 3): 98.0 n-fold
- Stimulation (n-fold) of sGC, +10 μM ODQ ([2]; 1 μM Example 3): 124 n-fold
- Stimulation (n-fold) of sGC, +10 μM ODQ ([2]; 10 μM Example 3): 134 n-fold
- Stimulation (n-fold) of sGC, Basal ([2]; 0.01 μM Example 3): 6.1 n-fold
- Stimulation (n-fold) of sGC, Basal ([2]; 0.1 μM Example 3): 11.6 n-fold
- Stimulation (n-fold) of sGC, Basal ([2]; 1 μM Example 3): 16.0 n-fold
- Stimulation (n-fold) of sGC, Basal ([2]; 10 μM Example 3): 18.9 n-fold
- Synergy with the NO donor DEA/NO on sGC ([2]; combination with DEA/NO): no synergistic effect
- MEC (minimum effective concentration) [3]: 1 nM
- Stimulation (n-fold) of heme-free sGC, Basal ([4]; 0.01 μM Example 3): 9.9 n-fold
- Stimulation (n-fold) of heme-free sGC, Basal ([4]; 0.1 μM Example 3): 35.2 n-fold
- Stimulation (n-fold) of heme-free sGC, Basal ([4]; 1 μM Example 3): 69.7 n-fold
- Stimulation (n-fold) of heme-free sGC, Basal ([4]; 10 μM Example 3): 74.6 n-fold
SMILES: O=C(O)c1ccc(CCC(/C=C/c2ccccc2OCCCN2CCCC2=O)Cc2ccc(C(=O)O)cc2)cc1 (single isomer, unassigned) [Example 3, 4-[(4E)-3-(4-Carboxybenzyl)-5-{2-[3-(2-oxopyrrolidin-1-yl)propoxy]phenyl}pent-4-en-1-yl]-benzoic acid]
